According to patent publication US20150164868A1, “METHODS OF ADMINISTERING RIFAXIMIN WITHOUT PRODUCING ANTIBIOTIC RESISTANCE” (priority 2012, published 2015):
Converted amounts (≈) assume the structure as drawn. Like-named read-outs stand apart in the source and are kept apart here.

Tests used:
Staphylococcus spp. [1] = assay: Rifampicin susceptibility testing (E-test strip) of Staphylococcus colonies isolated from rat stool; type: cell-based; details: for MIC: read-out: mean inhibitory concentration (MIC) for rifampicin
Procedure: Rifampicin susceptibility was tested in Staphylococcus spp. isolated from stool of rats before and after rifaximin treatment for 10 days. From PEA plates, 30 random recognizable Staphylococcus colonies were picked for baseline cultures, suspended in PBS and spread on PEA agar plates to create a lawn. A commercially available rifampicin test strip was added to each lawn to detect rifampicin resistance. The range of rifampicin mean inhibitory concentrations (MICs) detected by E-test was 0.002 to 32 μg/mL. Based on manufacturer's instruction, growth at <2 ug/mL was considered sensitive, growth at 2-4 ug/mL was considered intermediate resistance to rifampicin, and growth at >4 ug/mL was considered resistant to rifampicin. After 10 days of rifaximin, stool was again plated on PEA and another 30 staphylococcal colonies were picked for producing a lawn to analyze rifampicin resistance using the applied test strip. Since no significant Staphylococcus spp. colonies remained on day 30 post rifaximin treatment, sensitivity testing could not be assessed.

coliforms [2] = assay: Stool coliform culture (MacConkey agar) with rifaximin gavage; type: in vivo, Sprague-Dawley rats
Procedure: (§1) After this equilibration period, fresh stool was collected from each rat (n=30) by anal stimulation. The stool collected on Day 0 was homogenized and plated by serial dilution with 1XPBS (Phosphate Buffered Saline) on Blood Agar with Phenylethyl Alcohol (PEA) to select for the presence of the Staphylococcal spp. Similarly, homogenized stool was serially plated on MacConkey agar to select for and determine coliform counts in the stool. All plates were incubated for 24 hours at 37° C. Based on serial stool dilution and colony counts, the baseline stool levels of Staphylococcus spp. and coliforms were determined
Rats were divided into 3 treatment groups and gavaged daily for 10 days with or without high dose rifaximin Group 1 was gavaged with PBS alone, Group 2 was gavaged daily with rifaximin 200 mg in PBS. Groups 1 and 2 were euthanized after the 10 days of daily gavage. Group 3 was gavaged daily with rifaximin 200 mg in PBS and housed for 30 days following completion of rifaximin before euthanasia. During the rifaximin treatment, fresh stool was collected daily as described above. […] After the completion of 10 days of treatment, 10 rats were euthanized for bacterial quantitation by culture and qPCR throughout the intestinal tract. […] These rats had interval stool culture for quantitation of Staphylococcus spp. and coliforms and the determination of recovery time of stool flora if any.

coliforms [3] = assay: Luminal coliform culture by bowel segment; type: in vivo, Sprague-Dawley rats; details: after treatment with rifaximin vs non-treated control rats; bowel segments (FIG. 3)
Source text: (§2) For the examination of luminal bacterial counts, rats were euthanized and dissected after 10 days of PBS (n=10) (control), after 10 days of rifaximin (n=10) and 30 days post rifaximin (n=10). During the dissection, pre-specified segments of duodenum, jejunum, ileum, cecum and left colon were ligated and resected as previously described (Pimentel et al. 2008. Dig Dis Sci 53:982-989). Luminal contents were extracted from each segment. For culture of coliforms, serial dilutions were again prepared and plated on MacConkey agar then incubated and counted. In addition, luminal contents were also used to determine total bacterial counts by qPCR.

coliform bacteria = assay: Effect of dietary fat with rifaximin on coliform bacteria; type: in vivo, Sprague-Dawley rats; details: healthy rats
Procedure: Adult male Sprague-Dawley Rats were randomly assigned to three groups. Group 1 was gavaged daily for 7 days with rifaximin in PBS. Group 2 received rifaximin 200 mg in lipid daily by gavage. Group 3 were 10 rats only given PBS (control). Rats had fresh stool collected by anal stimulation at baseline and daily during gavage. The stool was homogenized and plated by serial dilution on MacConkey Agar (BD Diagnostics, Franklin Lakes, N.J.). This is a selective agar for coliform bacteria. Based on serial dilution, the total number of coliform bacteria was determined.

Staphylococcal spp = assay: IBS model: Staphylococcus sensitivity testing to rifampin (E-test strips); type: cell-based
Procedure: The effect of rifaximin on Staphylococcal species was tested and antibiotic resistance was examined. The contents of the ligated bowel segments were examined to determine the quantity and type of bacteria by segment and evaluate expression of mucosal cytokines.
Among rats with detectable staphylococcus, rifampin resistance was tested using E-test strips and Data was analyzed by Fisher's Exact Test. […] (Table 2)

[4] = test system: Staphylococcus, Streptococcus, Enterococcus, and Enterobacteriaceae; details: species of Staphylococcus; cited from earlier work
Staphylococcus = assay: IBS model (post C. jejuni): presence of Staphylococcus after rifaximin; type: in vivo, Sprague-Dawley rats; details: rats with IBS phenotype; 51 rats rifaximin vs 50 placebo
Procedure: Following acute infection with C. jejuni, rats develop a phenotype of IBS and small intestinal bacterial overgrowth. For the examination of antibiotic resistance following rifaximin treatment in subject with IBS, 100 Sprague-Dawley rats were gavaged with 10^8 cfu of C. jejuni 81-176 within 30 minutes of gavage with a bicarbonate solution using a ball-tipped gavage needle. After gavage rats were followed with daily stool culture for C. jejuni for seven consecutive days to verify infection. In addition, stool was characterized on the basis of consistency.
Thirty days from gavage, stool samples were collected on two consecutive days to confirm absence of C. jejuni in stool. Once rats were confirmed to have cleared C. jejuni, they were housed in common conditions for a period of three months. […]
The rats were then randomized and received either a 200 mg dose of rifaximin in PBS or PBS alone daily for 10 days. […] Upon completion of treatment with rifaximin, the rats were monitored for an additional seven days. […]
The effect of rifaximin on Staphylococcal species was tested and antibiotic resistance was examined. The contents of the ligated bowel segments were examined to determine the quantity and type of bacteria by segment and evaluate expression of mucosal cytokines. […]

Staphylococcus spp. [5] = assay: Stool Staphylococcus spp. colony counts (PEA agar) during and after daily rifaximin gavage; type: in vivo, Sprague-Dawley rats
Source text: Adult male Sprague-Dawley rats were acquired and quarantined for 5 days. During this time, chow was standardized to ensure all animals had identical feeding type.
as §1
Rats were divided into 3 treatment groups and gavaged daily for 10 days with or without high dose rifaximin Group 1 was gavaged with PBS alone, Group 2 was gavaged daily with rifaximin 200 mg in PBS. Groups 1 and 2 were euthanized after the 10 days of daily gavage. Group 3 was gavaged daily with rifaximin 200 mg in PBS and housed for 30 days following completion of rifaximin before euthanasia. During the rifaximin treatment, fresh stool was collected daily as described above. Again, stool was homogenized and plated by serial dilution on MacConkey and PEA agar to determine coliform and Staphylococcus spp. counts during the treatment. After the completion of 10 days of treatment, 10 rats were euthanized for bacterial quantitation by culture and qPCR throughout the intestinal tract. The remaining 10 rats were followed for 30 days after completing rifaximin. These rats had interval stool culture for quantitation of Staphylococcus spp. and coliforms and the determination of recovery time of stool flora if any.

[6] = oral administration; Descombe et al. 1994; cited from earlier work
total bacteria = assay: qPCR of total luminal bacteria by bowel segment; type: in vivo, Sprague-Dawley rats
Source text: as §2
To quantify bacteria in the luminal contents, qPCR was used. DNA was isolated from luminal contents of the duodenal, jejunal, ileal, cecal and left colon samples using commercially available kits. Bacterial universal primers (Mohammadi et al. 2003. J Clin Microbiol 41(10):4796-4798) were used to amplify the 16S rRNA gene from DNA using a commercially available RT-PCR detection system and optical grade 96-well plates. Samples were run in duplicate. To generate standard curves, the Ct values were analyzed from ten-fold dilutions of lysed Escherichia coli cultures. E. coli from a number of laboratory strains were pooled and grown in LB media.
The same adult male Sprague-Dawley rats from the coliform culture study described above were used here. In this experiment, ten rats were euthanized at day 10 of rifaximin treatment, and ten rats were euthanized at day 30 after completion of rifaximin treatment. As a control to these two groups, a group of 10 rats were gavaged with only PBS (placebo); these rats were also euthanized after 10 days. After euthanasia, rats were dissected to remove a segment of ileum, jejunum and duodenum as well as cecum and left colon. Luminal contents from these 5 areas were removed, and DNA was extracted. Quantitative PCR (qPCR) was used to determine the total number of bacteria in each segment of bowel. These counts were compared between control, rifaximin treated and 30 day post rifaximin rats (Example 1).

[7] = Staphylococcus from IBS-phenotype rats treated with rifaximin
[8] = sensitivity to rifampin, IBS-phenotype rats treated with rifaximin
[9] = after 10 days of gavage with rifaximin, 30 random colonies
[10] = all rats receiving rifaximin (n=20) vs control rats

With `CO[C@H]1/C=C/O[C@@]2(C)Oc3c(C)c(O)c4c(O)c(c(/C=N/N5CCN(C)CC5)c(O)c4c3C2=O)NC(=O)/C(C)=C\C=C\[C@H](C)[C@H](O)[C@@H](C)[C@@H](O)[C@@H](C)[C@H](OC(C)=O)[C@@H]1C` [rifampicin] the MIC (Staphylococcus spp. [1]; 240 h, Staphylococcus colonies from rat stool after 10 days of high dose rifaximin, P=0.63 vs baseline) was 0.91 ± 0.52 µg/mL (≈ 1.11 µM) and the MIC (Staphylococcus spp. [1]; Staphylococcus colonies from rat stool at baseline (before rifaximin)) was 1.1 ± 1.6 µg/mL (≈ 1.34 µM).
For “(2S,16Z,18E,20S,21S,22R,23R,24R,25S,26S,27S,28E)-5,6,21,23,25 Pentahydroxy-27-methoxy-2,4,11,16,20,22,24,26-octamethyl-2,7-(epoxypentadeca-(1,11,13)trienimino)benzofuro(4,5-e)pyrido(1,2,-a)benzimidazole-1,15(2H)-dione,25-acetate) [rifaximin]”, the “time to recovery of stool coliform count” value (coliforms [2]; after the 10-day rifaximin treatment) was “three”, the “median stool coliform count” value (coliforms [2]; day 10 of high dose rifaximin, P<0.01 vs baseline) was 2.2×10^3 cfu/mL and the “change in luminal coliform counts by culture” value (coliforms [3]) was “no significant change in coliform counts by culture”. The “normal flora (coliform) counts in the small bowel” value (coliform bacteria; rifaximin by itself or with oil as dissolving media) was “did not appear to change normal flora counts”, the “median coliform count in the duodenum” value (coliform bacteria; rifaximin in PBS or rifaximin 200 mg in lipid, daily gavage 7 days) was 0 and the “Median MIC of rifampin” value (Staphylococcal spp; [7]) was 0.214 µg/mL. For the same molecule, the “Range of rifampin MIC” value (Staphylococcal spp; [7]) was 0.012 to 16 µg/mL, the “rifampin resistance of Staphylococcus after treatment” value (Staphylococcal spp; rats with an IBS phenotype, detectable staphylococcus, Fisher's Exact Test) was “no evidence of rifampin resistance” and the “% of rats with resistance” value (Staphylococcal spp; resistance to rifampin, 51 IBS-phenotype rats treated with rifaximin) was 1.96%. For the same molecule, the “# of intermed Staphylococcal spp” value (Staphylococcal spp; [8]) was 0, the “# of resistant Staphylococcal spp” value (Staphylococcal spp; [8]) was 1 and the “# of sensitive Staphylococcal spp” value (Staphylococcal spp; [8]) was 10. The “antibacterial activity in vitro” value [4] was “active”, the “rate of colonization of rats with Staphylococcus” value (Staphylococcus) was “reduction in the rate of colonization” and the “Staphylococcus spp. colonies in stool 30 days after rifaximin” value (Staphylococcus spp. [5]; 30 days after completion of 10 days rifaximin) was “insufficient Staphylococcus spp. colonies in any of the rats to analyze”. For the same molecule, the “range of total count of Staphylococcus spp in stool” value (Staphylococcus spp. [5]; after 10 days of rifaximin 200 mg daily gavage, 20 rats) was 0-8.6×10^5 cfu/ml, the “median total count of Staphylococcus spp in stool” value (Staphylococcus spp. [5]; after 10 days of rifaximin 200 mg daily gavage, total of S. aureus and coag-Staphylococcus, 20 rats, p<0.01 vs baseline) was 1.20×10^5 cfu/ml and the “level of S. aureus in stool of rats with detectable S. aureus” value (Staphylococcus spp. [5]; day 10 of rifaximin treatment) was 2×10^3 cfu/ml. For the same molecule, the “number of rats with detectable S. aureus in stool” value (Staphylococcus spp. [5]; day 10 of rifaximin treatment, of 20 rats (18/20 at baseline)) was 5, the “time course of Staphylococcus spp in stool” value (Staphylococcus spp. [5]; during rifaximin 200 mg daily gavage) was “diminish significantly in stool by day 3” and the “Staphylococcal colonies Intermediate (2-4 ug/mL) resistance to rifampin, %” value (Staphylococcus spp. [1]; [9]) was 3.3%. The “Staphylococcal colonies Sensitive (<2 ug/mL) to rifampin, %” value (Staphylococcus spp. [1]; [9]) was 96.6%, the systemic absorption [6] was “negligible systemic absorption” and the “durability of the reduction in duodenal bacteria counts by qPCR” value (total bacteria; after 10 days of rifaximin and 30 days post, P=0.08, not quite significant) was “sustained 30 days after the completion of rifaximin”. The “duodenal total bacterial counts by qPCR” value (total bacteria; [10]) was “significant reduction in duodenal bacterial counts”, the “jejunal total bacterial counts by qPCR” value (total bacteria; [10]) was “appeared to diminish as well, this did not reach statistical significance” and the “total bacterial counts by qPCR in the ileum, cecum or left colon” value (total bacteria; [10]) was “no differences were seen”.
